4 compounds from paper PMC8803706, “Fibroblast activation protein targeted therapy using [^177Lu]FAPI-46 compared with [^225Ac]FAPI-46 in a pancreatic cancer model” (European Journal of Nuclear Medicine and Molecular Imaging, 2021) can be followed below.

Series [1] relates to PANC-1 xenograft mice. Nature of the series: [^18F]FAPI-74 PET imaging in PANC-1 xenograft mice. Type of series: in vivo. As to the method: PET images were acquired with a small animal PET scanner (Siemens Inveon PET/CT) 3 weeks after the implantation in PANC-1 xenograft mice (9 weeks old, body weight = 25.3 ± 1.2 g, n = 9). Under 2% isoflurane anesthesia, [^18F]FAPI-74 (12.4 ± 1.7 MBq) was injected in the tail vein. Dynamic PET scans (scan duration = 70 min, n = 2) were started simultaneously with the bolus injection. Static PET scans (scan duration = 10 min, n = 7) were performed 1 h after injection, followed by a CT scan. PET data were reconstructed into 2-min frames in the dynamic PET scan (2 min × 35 frames) and one frame in the static PET scan by three-dimensional ordered-subset expectation–maximization (16 subsets, 2 iterations), with attenuation and scatter correction. Regions of interest were drawn on the muscle, heart, lungs, liver, gallbladder, kidneys, intestine, and tumour. The mean standardized uptake values (SUVmean) and maximum standardized uptake values (SUVmax) were measured using PMOD (Version 4.0).

The test system of a further series is PANC-1 xenograft. Nature of the series: Treatment effect on tumour size in PANC-1 xenograft mice. The following applies: for relative ratio of the tumour size compared to the control group: day 40. Type of series: in vivo. As to the method:
Male nude mice (BALB/cSlc-nu/nu) were purchased from Japan SLC Inc. (Hamamatsu, Japan). Animals were housed under a 12-h light/12-h dark cycle and allowed free access to food and water. The mice were injected with PANC-1 cells (1 × 10^7 cells) in a mixture of phosphate-buffered saline and Matrigel (0.1 mL, 1:1; BD Biosciences, Franklin Lakes, NJ, USA). Tumour xenograft models were evaluated 3 weeks after transplantation of PANC-1 cells (tumour volume = 716 ± 304 mm^3). Euthanasia was performed in the following conditions: (1) when the animals had unbearable suffering, (2) when a significant decrease in activity or a marked decrease in food and water intake was observed, and (3) at the end of the observation period (up to 44 days for [^177Lu]FAPI-46 and 32 days for [^225Ac]FAPI-46). Euthanasia was performed by deep anesthesia using isoflurane inhalation.
(§1) [^177Lu]FAPI-46 and [^225Ac]FAPI-46 were injected into PANC-1 xenograft mice via the tail vein (9 weeks old, body weight = 22.7 ± 2.1 g). Mice injected with [^177Lu]FAPI-46 were divided into four groups according to the injected dose: 3 MBq (3.2 ± 0.1 MBq, n = 6), 10 MBq (10.2 ± 0.5 MBq, n = 6), 30 MBq (30.5 ± 2.7 MBq, n = 6) and control (n = 4) groups. Mice injected with [^225Ac]FAPI-46 were divided into four groups: 3 kBq (2.9 ± 0.0 kBq, n = 3), 10 kBq (8.5 ± 1.1 kBq, n = 2), 30 kBq (30.5 ± 0.7 kBq, n = 6) and control (n = 7) groups. The tumour size and body weight were measured with a caliper using the elliptical sphere model calculation, three times per week during the observation period.

In series [2] the test system is PANC-1 xenograft mice. Nature of the series: Biodistribution of [^177Lu]FAPI-46 and [^225Ac]FAPI-46 in PANC-1 xenograft mice (gamma counter). Type of series: in vivo. The following applies: for organs with relatively high accumulation / residence: 24 h post-injection; for clearance from organs: between 3 and 24 h post-administration. As to the method: [^177Lu]FAPI-46 (3.3 ± 0.1 MBq) and [^225Ac]FAPI-46 (12.5 ± 0.7 kBq) were injected into PANC-1 xenograft mice (9 weeks old, body weight = 23.9 ± 0.9 g, n = 12). After euthanasia by deep inhalation anesthesia with isoflurane, the brain, thyroid gland, salivary glands, lungs, heart, liver, spleen, pancreas, stomach, small intestine, large intestine, kidneys, bone (femur), bladder, testis, tumour, blood, and urine were removed and weighed at 3 h and 24 h. Radioactivity was also measured using a gamma counter (2480 Wizard^2 Gamma Counter, Perkin Elmer, USA).

Series [3] can be described thus: Body weight of treated PANC-1 xenograft mice. Type of series: in vivo. As to the method:
as §1

Series [4] relates to PANC-1 xenograft mice. Nature of the series: Histological analysis (H&E) of kidneys and tumours after treatment. Type of series: in vivo. As to the method:
All mice were killed after [^18F]FAPI-74 PET imaging, and tumour xenografts were removed. Immunohistochemical staining was performed using anti-FAP alpha antibody (ab53066; Abcam, Cambridge, UK), and the Dako EnVision + System—HRP Labelled Polymer Anti-Rabbit (K4003) (DAKO Corp., Glostrup, Denmark). To evaluate toxicity, the kidneys were removed after the mice treated with [^177Lu]FAPI-46 and [^225Ac]FAPI-46 were sacrificed. The tissues were fixed in 10% neutral buffered formalin solution for paraffin blocks and stained with hematoxylin and eosin (H&E). Tumour blocks in all mice were also stained with H&E.

In series [5] the test system is PANC-1 xenograft mice. Particulars: data not shown.
The mark [6] stands for this setting: static PET scan 1 h after i.v. injection.

For the compound `N#C[C@@H]1CCCN1C(=O)CNC(=O)c1ccnc2ccc(OCCCN3CCN(C(=O)CN4CCN(CC(=O)[O-])CCN(CC(=O)[O-])CC4)CC3)cc12.[18F][Al+2]` [[^18F]FAPI-74], in the series on PANC-1 xenograft mice [1] (setting [6]), the “SUVmean in the gallbladder” value stood at 0.66 ± 0.15, the “SUVmean in the heart” value was 0.08 ± 0.01, the “SUVmean in the intestine” value amounted to 0.61 ± 0.48 and the “SUVmean in the kidneys” value is 0.39 ± 0.07. For the same compound, in the series on PANC-1 xenograft mice [1] (setting [6]), the “SUVmean in the liver” value was found to be 0.14 ± 0.02, the “SUVmean in the muscle” value worked out at 0.05 ± 0.01 and the “SUVmean in the tumour” value is 0.24 ± 0.04. In the series on PANC-1 xenograft mice [1] (time-activity curve), the “clearance and tumour washout on dynamic PET” value was “cleared rapidly by the kidneys but washout from the tumour occurred slowly”.

For the compound `CN(CCCN1CCN(C(=O)CN2CCN(CC(=O)[O-])CCN(CC(=O)[O-])CCN(CC(=O)[O-])CC2)CC1)c1ccc2nccc(C(=O)NCC(=O)N3CC(F)(F)C[C@H]3C#N)c2c1.[177Lu+3]` [[^177Lu]FAPI-46], the “tumour growth after administration” value in the series with PANC-1 xenograft (3, 10, 30 MBq, multiple comparisons across the doses) is reported as “inhibitory trend after administration, although the changes were not statistically significant”. Besides, the “therapeutic effects (time course)” value in the series with PANC-1 xenograft (3 MBq and 10 MBq groups) is “slower and were seen until day 12”. For the same compound, the “relative ratio of the tumour size compared to the control group” value (“relative ratio of the tumour size” below) in the series with PANC-1 xenograft (3 MBq group) was 0.62. Also, the “relative ratio of the tumour size” value with PANC-1 xenograft (10 MBq group) was 0.56. Further, in the series on PANC-1 xenograft (30 MBq group), the “time after administration at which tumour-suppressive effects were observed” value is 9 days and the “relative ratio of the tumour size” value was 0.27. The “%ID/g of the urine” value in the series on PANC-1 xenograft mice [2] (3 h post-administration, PANC-1 xenograft mice) came to 21.2 ± 15.3 %ID/g. In addition, in the series on PANC-1 xenograft mice [2], the “organs with relatively high accumulation / residence” value is “relatively high tracer accumulation was seen in the tumour, large intestine, and bone”; the clearance from organs entry was “Most organs showed fast clearance”. For the same compound, in the series with PANC-1 xenograft mice [2] (PANC-1 xenograft mice), the “uptake in the liver” value is reported as “low”. Besides, in series [3] (10 MBq and 30 MBq groups), the “body weight compared to the controls” value is “slight decrease without statistical significance”. In addition, in the series on PANC-1 xenograft mice [4] (day 44 after administration), the “histological changes in the kidneys (H&E)” value is recorded as “No histological changes” and the “histological changes in the tumour (H&E) compared to controls” value is given as “No significant difference”.

`[177Lu+3].[Cl-].[Cl-].[Cl-]` [[^177Lu]LuCl3, Lutetium-177 chloride]: the lethal dose in the series with PANC-1 xenograft mice [5] worked out at 30 MBq.

With `CN(CCCN1CCN(C(=O)CN2CCN(CC(=O)[O-])CCN(CC(=O)[O-])CCN(CC(=O)[O-])CC2)CC1)c1ccc2nccc(C(=O)NCC(=O)N3CC(F)(F)C[C@H]3C#N)c2c1.[225Ac+3]` [[^225Ac]FAPI-46], in the series with PANC-1 xenograft (3 kBq group), the tumour-suppressive effects entry is recorded as “very mild”. Also, the “tumour growth after treatment” value in the series with PANC-1 xenograft (10 kBq and 30 kBq groups) is listed as “suppressed immediately after treatment”. Further, in the series with PANC-1 xenograft (30 kBq group), the “tumour size vs control group” value was “significantly smaller than those in the control group on days 5–9 and day 25”. Further, the “day at which tumour regrowth began” value in the series on PANC-1 xenograft (high dose) worked out at 12 days. In addition, in the series on PANC-1 xenograft mice [2], the “organs with relatively high accumulation / residence” value was “relatively higher residence time in the tumour, spleen, liver, stomach, small intestine, and large intestine”; the clearance from organs result was “Most organs showed fast clearance”. The “uptake in the liver” value in the series with PANC-1 xenograft mice [2] (PANC-1 xenograft mice) was “high accumulation in the liver”. Further, the body weight recovery result in series [3] (3 kBq and 10 kBq groups) is reported as “recovery after day 7”. Further, the body weight entry in series [3] (all groups (3, 10, 30 kBq)) is reported as “decreasing trend in the first week”. In the series on PANC-1 xenograft mice [4] (day 32 after administration), the “histological changes in the kidneys (H&E)” value was “No histological changes”.
